Patent US20220152117A1, “METHODS OF PROMOTING CELLULAR MATURATION WITH AMPK ACTIVATORS” (UNIVERSITY OF WASHINGTON, priority 2019, published 2022)

Assays:
Assay type in all cases: cell-based, human
hPSC-CMs = assay: Electron microscopy and point counting of relative mitochondrial volume; conditions: after AICAR treatment; control 0.068±0.006
Experimental: Adherent cells in tissue culture dishes were fixed for transmission electron microscopy in half-strength Karnovsky's fixative (2.0% paraformaldehyde, 2.5% glutaraldehyde, 0.1M phosphate buffer, pH 7.4) overnight. The cells were then washed in 0.1M phosphate buffer two times (5 minutes each) and post-fixed in 1.0% OsO4 in 0.1M phosphate buffer. Cells were rinsed twice (5 minutes each) then dehydrated in […], 70% and 90% alcohol, 2 minutes each, then in 100% alcohol twice (5 minutes each). Cells were embedded in Polybed 812 Resin™ (Ted Pella®, Redding, Calif.) by first infiltrating with a mixture of 50% alcohol/50% polybed for 1 hour and then pure polybed for 3 hours. Beem capsules filled with fresh resin were inverted over areas of cells. Polymerization procedure was performed for 24 hours at 65° C. Removal of beem capsules was achieved by placing plates in boiling water then gently peeling the capsule containing the polymerized resin and cells away from the plastic plate. Sections for light and transmission electron microscopy were cut using a Reichert Ultracut E Microtome™. […] The relative mitochondrial volume was calculated by point counting, in which 20 horizontal and 20 perpendicular lines were drawn in the images and the crosspoints that overlapped with mitochondria was counted and then divided by the total points.

control cardiomyocytes = assay: TUNEL cell viability assay, control cardiomyocytes from normal iPSCs; conditions: two weeks treatment, TUNEL with α-actinin co-stain
Experimental: The normal and mutant Plakophilin 2 (PKP2) cells were generated as described previously^37. Induced pluripotent cells were cultured with E8 medium in Matrigel® coated plates. Cardiomyocytes were obtained using a protocol based on Lian et al^38 that involves Wnt agonist CHIR 99021 in the early stages of differentiation followed by the Wnt antagonist IWP2 under monolayer condition. Before Day 7, cells were cultured in RPMI plus B27 without insulin while on Day 7 and afterwards, EB media (KO-DMEM with 2% FBS, 1 mM NEAAs, 1× GlutaMAX, 1 mM mercaptoethanol, and penicillin/streptomycin) was used. At 30 days of differentiation, beating EBs were treated with three factors (3F) (50 μg/ml insulin, 0.5 μM dexamethasone, and 0.25 mM IBMX) or five factors (5F) (3F plus PPAR-γ agonists 5 μM rosiglitazone and 200 μM indomethacin) media as described earlier or treated with 1 mM AICAR or AICAR plus rosiglitazone and indomethacin for two weeks. TUNEL staining with In Situ Cell Death Detection Kit TMR Red™ (Roche®) was used to assess cell viability after conducting different treatment. TUNEL staining was co-stained with anti-α-actinin antibody so that cardiomyocyte-specific apoptosis could be assessed.

hiPSC-CMs = assay: mtDNA to nDNA ratio by q-PCR in cardiomyocytes; conditions: relative to control hiPSC-CMs
From the text: Mitochondrial DNA (mtDNA) to nuclear DNA (nDNA) ratio was estimated by q-PCR. For this purpose, a mtDNA fragment within the NADH dehydrogenase 1 (ND 1) gene and a region of the nuclear DNA-encoded lipoprotein lipase gene (LPL) were amplified. The primer sequences for ND 1 and LPL were adapted from^30. Total DNA was extracted using Qiagen DNeasy Kit™.

[1] = system: neurons derived from an FAD patient cell line harboring a duplication of the APP gene; assay: Secreted amyloid beta peptides in neuronal culture media by ELISA; conditions: three-week neuronal differentiation, at each week
Experimental: Undifferentiated human IMR90-induced pluripotent stem cells, originally derived from lung fibroblasts^22 (James A. Thomson, University of Wisconsin-Madison), were expanded using mouse embryonic fibroblast-conditioned medium supplemented with 5 ng/ml basic fibroblast growth factor. Cardiomyocytes were obtained using a previously described protocol^2 that involves the serial application of activin A and bone morphogenetic protein-4 (BMP4) under serum-free, monolayer culture conditions. The cultures were also supplemented with the Wnt agonist CHIR99021 in the early stages of differentiation followed by the Wnt antagonist Xav939. In this study, cardiomyocytes derived from human undifferentiated IMR90-induced stem cells were used, and for brevity, these are referred to human induced pluripotent stem cell-derived cardiomyocytes (hiPSC-CM). After 20 days of in vitro differentiation, the cells were dispersed using 0.05% trypsin-EDTA and re-plated. Cultures were fed every other day thereafter with serum-free RPMI-B27 plus insulin. Only cell preparations containing >80% cardiac troponin T-positive cardiomyocytes (by flow cytometry) were used for the current investigation. […]
Secreted Amyloid beta (Ab) peptides were measured from the neuronal culture media at one, two and three-week time points after AICAR treatment by ELISA assay (Meso Scale Discovery®).

NC(=O)c1ncn([C@@H]2O[C@H](CO)[C@@H](O)[C@H]2O)c1N [AICAR, 5-amino-4-imidazolecarboxamide riboside-1-β-D-ribofuranoside]
mitochondrial volume fraction (hPSC-CMs): 0.119±0.013 | apoptosis in control cardiomyocytes (control cardiomyocytes): None of the treatment groups significantly leads to apoptosis | increase in the ratio of mtDNA to nDNA (hiPSC-CMs): 55% | levels of secreted Ab1-40 peptides [1]: significantly reduced | levels of secreted Ab1-42 peptides [1]: significantly reduced
